The structures appear in SMILES notation.

This experiment addresses T1, cereblon (CRBN) (Homo sapiens, UniProt Q96SW2).
T1 construct: CRBN-DDB1ΔB complex; with DDB1ΔB
Description: intact protein MS covalent labelling and MS/MS site mapping (also cellular NanoBRET IC50 […] at […] h). It is filed as binding. (BRET reads energy transfer from a luciferase to a nearby fluorophore.)

T1 sequence (Q16531 2-1140): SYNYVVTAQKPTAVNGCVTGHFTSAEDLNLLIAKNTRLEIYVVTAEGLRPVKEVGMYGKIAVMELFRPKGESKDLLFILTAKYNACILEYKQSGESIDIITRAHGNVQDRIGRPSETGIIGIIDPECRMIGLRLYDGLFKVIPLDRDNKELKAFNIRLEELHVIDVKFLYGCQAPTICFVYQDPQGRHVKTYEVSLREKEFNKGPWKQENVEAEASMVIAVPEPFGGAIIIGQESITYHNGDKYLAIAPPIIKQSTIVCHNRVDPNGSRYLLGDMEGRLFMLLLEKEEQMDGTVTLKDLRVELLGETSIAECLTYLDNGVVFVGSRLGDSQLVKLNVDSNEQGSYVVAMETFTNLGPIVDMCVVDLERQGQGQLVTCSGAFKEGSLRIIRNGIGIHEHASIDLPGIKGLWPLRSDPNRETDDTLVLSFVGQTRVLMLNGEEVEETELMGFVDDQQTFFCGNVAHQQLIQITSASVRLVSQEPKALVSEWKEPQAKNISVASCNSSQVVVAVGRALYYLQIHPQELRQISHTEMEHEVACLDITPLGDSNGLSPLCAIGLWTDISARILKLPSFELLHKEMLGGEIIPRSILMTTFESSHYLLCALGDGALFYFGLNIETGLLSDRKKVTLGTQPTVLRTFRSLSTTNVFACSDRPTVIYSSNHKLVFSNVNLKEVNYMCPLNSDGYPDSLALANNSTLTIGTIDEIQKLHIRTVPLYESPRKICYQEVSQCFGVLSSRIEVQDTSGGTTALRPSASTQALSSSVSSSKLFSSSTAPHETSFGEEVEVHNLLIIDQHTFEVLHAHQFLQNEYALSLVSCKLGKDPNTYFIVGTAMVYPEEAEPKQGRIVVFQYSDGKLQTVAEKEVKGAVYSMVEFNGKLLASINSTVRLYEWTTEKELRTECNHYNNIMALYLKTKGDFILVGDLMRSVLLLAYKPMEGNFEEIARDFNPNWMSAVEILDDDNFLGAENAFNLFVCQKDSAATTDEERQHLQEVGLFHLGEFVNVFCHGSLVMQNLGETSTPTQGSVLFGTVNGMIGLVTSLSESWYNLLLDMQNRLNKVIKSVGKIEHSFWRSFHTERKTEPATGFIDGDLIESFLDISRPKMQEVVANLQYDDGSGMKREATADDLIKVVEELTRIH
T1 sequence (Q96SW2 whole entry): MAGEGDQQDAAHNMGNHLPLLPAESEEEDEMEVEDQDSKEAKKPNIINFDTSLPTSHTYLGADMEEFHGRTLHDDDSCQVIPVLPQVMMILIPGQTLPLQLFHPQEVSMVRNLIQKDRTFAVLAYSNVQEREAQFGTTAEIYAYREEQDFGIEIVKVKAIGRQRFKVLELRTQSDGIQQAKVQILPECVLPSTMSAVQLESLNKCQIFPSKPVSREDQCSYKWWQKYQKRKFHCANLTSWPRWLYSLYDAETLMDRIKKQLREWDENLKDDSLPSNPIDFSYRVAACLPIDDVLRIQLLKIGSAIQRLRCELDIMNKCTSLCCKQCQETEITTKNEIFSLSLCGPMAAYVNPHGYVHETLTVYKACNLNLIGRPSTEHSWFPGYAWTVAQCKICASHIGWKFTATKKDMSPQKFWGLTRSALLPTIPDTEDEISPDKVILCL

`Cc1sc2c(c1C)C(c1ccc(Cl)cc1)=N[C@@H](CC(=O)Nc1ccc(OCCOCCOCCOCCNc3cc(OS(=O)(=O)F)cc4c3C(=O)N(C3CCC(=O)NC3=O)C4=O)cc1)c1nnc(C)n1-2` (stereo partly shown) [FS-ARV-825]: the “% labelled (10 μM, 24 h)” value was ~ 50 % labelled (10 μM, 24 h).

Values taken from article PMC10619143, “Development of a covalent cereblon-based PROTAC employing a fluorosulfate warhead” (RSC Chemical Biology, 2023).
